Assay results from patent US10189881B2, “MPS peptides and use thereof” (The Regents of the University of California, priority 2013, dated 2019).

Columns and labels:
[1] = tested on: MARCKS phosphorylation (Ser159/163); assay: Western blot of MARCKS phosphorylation in peptide-treated cells; assay type: cell-based, human; conditions: alanine-substituted peptide
Protocol: The levels of MARCKS phosphorylation in chemoresistant cancer cell lines after 24 hours of MPS or mutant (Mut) peptide treatment. Lysates form 100 μM MPS-or Mut peptide-treated H1650 or H1975cells were subjected to immunoblotting. The sequences of MARCKS MPS peptide consisted of amino acids 152 to 176 from the wild-type protein (SEQ ID NO: 9). The sequences of mutated MPS peptide (Mut) (SEQ ID NO: 14) had the replacement of serine residues (S) by aspartate (D) and are unable to be recognized by PKC. The underline represents the PIP2 binding site.
FIGS. 13A-13G show MPS peptide suppresses cancer cell proliferation and also induces apoptosis in these cells through direct downregulation of MARCKS activation. (A) Determination of MARCKS phosphorylation levels after 24 hours of MPS peptide treatment. Lysates from 1-100 μM MPS peptide-treated H1975 cells were subjected to western blot analysis. (B) Levels of PIP3 in drug resistant cancer cell lines after MPS peptide treatment. Cells were treated with 10, 50 or 100 μM MPS peptide. After 24 hours of treatment, PIP3 lipids were extracted from these cells and analyzed by a PIP3 ELISA kit. *P<0.05 compared with untreated cells. (C) Downregulation of AKT phosphorylation by MPS peptide treatment, but not by Mut peptide. Cells were treated with 100 μM MPS or Mut peptide for 24 hours. Lysates were immunoblotted with the indicated antibodies. (D) Cell viability analysis of six cancer cell lines and human bronchial epithelial cells (HBE1) upon MPS treatment. Cells were incubated with various concentrations of MPS peptide for 72 hours and then subjected to MTS assays. Polylysine served as a peptide control. n=4, *P<0.05 compared with untreated cells (Con). (E) Cells were treated with the indicated concentrations of MPS peptide and colonies were counted after 10 days of treatment using crystal violet staining (F) MPS treatment augments cell death. […] The percentages of apoptotic cells were quantified by flow cytometry (top), and presented as mean±SD of three experiments (bottom). *, P<0.05 versus untreated cells (Con). […]

[2] = tested on: cancer cells; assay: Anti-cancer activity of alanine-substituted MPS (method not given)
[3] = tested on: CL1-0 cells; assay: NBD-labeled peptide binding to live cells (confocal microscopy); assay type: cell-based, human; conditions: NBD-labeled peptides; b53 versus D-Mut, b70 versus SEQ ID NO: 9
From the text: FIGS. 28A-28C show MPS peptide binding to live cells. (A) Peptide sequences showing substitution of serine residues in MPS peptide (SEQ ID NO: 9). The serine residues of MPS peptide were replaced either by adding 4 aspartic acids (SEQ ID NO: 14), which are negatively charged and result in making the final peptide less positive, or by adding 4 alanines (SEQ ID NO: 10), which increased membrane affinity. Both the MPS and alanines-substituted (A-Mut) MPS peptides are highly positive charged and interact electrostatically with PIP2 on the phospholipid membrane. In contrast, electrostatic interaction with cell membrane is decreased in aspartates-substituted (D-Mut) MPS peptide (Gambhir, A. et al. (2004) Biophys. J. 86:2188-2207; Rusu, L. et al. (2004) Biophys J. 87:1044-1053; Glaser, M. et al. (1996) J. Biol. Chem. 271:26187-26193; Ellena, J.F. et al. (2003) Biophys. J. 85:2442-2448; McLaughlin, S. et al. (2005) Nature 438:605-611). Figure discloses “MH” domain as SEQ ID NO: 42. […] MPS peptide, D-Mut, and A-Mut MPS peptide were labeled with NBD (4-Chloro-7-Nitrobenz-2-Oxa-1,3-Diazole) dye. After purification of peptides, CL1-0 cells were treated with various NBD-labeled peptides and then subjected to DAPI staining. The NBD-labeled peptide (green) and nucleus counter-stain (blue) were visualized via confocal laser-scanning microscopy. […]

For “KKKKKRFAFKKAFKLAGFAFKKNKK [SEQ ID NO: 10, alanines-substituted MPS peptide]”, the “Phospho-MARCKS levels in cancer cells” value [1] was “reduce phospho-MARCKS levels”, the “Anti-cancer activity compared to MPS peptide of SEQ ID NO: 9” value [2] was “better anti-cancer activity” and the Peptide-cell interaction [3] was “greater peptide-cell interaction”.
